Test results as given in the supplement of paper PMC10307832.

What was measured:
Test in all cases: relative viability (nuclei count vs DMSO), 5 days (fraction); higher = more cells survive
NVP-TAE684 + Luminespib = compound: COc1cc(N2CCC(N3CCN(C)CC3)CC2)ccc1Nc1ncc(Cl)c(Nc2ccccc2S(=O)(=O)C(C)C)n1 [NVP-TAE684] + CCNC(=O)c1noc(-c2cc(C(C)C)c(O)cc2O)c1-c1ccc(CN2CCOCC2)cc1 [Luminespib] (partner 0.01 µM)
Summary of the method: (§1)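 Five library-drug doses in √10 steps were combined with a fixed anchor-drug dose, or a single drug was given alone, by pin tool to lung cancer cell lines in 1536-well plates the day after seeding. Nuclei were stained and counted after 5 days. Relative viability is the nuclei count in treated wells over that in vehicle wells, taken as the median of duplicate plates.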

NVP-TAE684 + Alpelisib = compound: COc1cc(N2CCC(N3CCN(C)CC3)CC2)ccc1Nc1ncc(Cl)c(Nc2ccccc2S(=O)(=O)C(C)C)n1 [NVP-TAE684] + Cc1nc(NC(=O)N2CCC[C@H]2C(N)=O)sc1-c1ccnc(C(C)(C)C(F)(F)F)c1 [Alpelisib] (partner 2 µM)
Summary of the method: as §1

Vandetanib + Palbociclib = compound: COc1cc2/c(=N/c3ccc(Br)cc3F)nc[nH]c2cc1OCC1CCN(C)CC1 [Vandetanib] + CC(=O)c1c(C)c2cnc(Nc3ccc(N4CCNCC4)cn3)nc2n(C2CCCC2)c1=O [Palbociclib] (partner 0.5 µM)
Summary of the method: as §1

Vandetanib + Pictilisib = compound: COc1cc2/c(=N/c3ccc(Br)cc3F)nc[nH]c2cc1OCC1CCN(C)CC1 [Vandetanib] + CS(=O)(=O)N1CCN(Cc2cc3nc(-c4cccc5[nH]ncc45)nc(N4CCOCC4)c3s2)CC1 [Pictilisib] (partner 1 µM)
Summary of the method: as §1

Row | Cell Line | relative viability (NVP-TAE684 + Luminespib; first compound 0.2 µM) | relative viability (NVP-TAE684 + Luminespib; first compound 0.6325 µM) | relative viability (NVP-TAE684 + Luminespib; first compound 2 µM) | relative viability (NVP-TAE684 + Alpelisib; first compound 0.2 µM) | relative viability (NVP-TAE684 + Alpelisib; first compound 0.6325 µM) | relative viability (NVP-TAE684 + Alpelisib; first compound 2 µM) | relative viability (Vandetanib + Palbociclib; first compound 0.02 µM) | relative viability (Vandetanib + Palbociclib; first compound 0.06325 µM) | relative viability (Vandetanib + Palbociclib; first compound 0.2 µM) | relative viability (Vandetanib + Palbociclib; first compound 0.6325 µM) | relative viability (Vandetanib + Palbociclib; first compound 2 µM) | relative viability (Vandetanib + Pictilisib; first compound 0.02 µM) | relative viability (Vandetanib + Pictilisib; first compound 0.06325 µM) | relative viability (Vandetanib + Pictilisib; first compound 0.2 µM) | relative viability (Vandetanib + Pictilisib; first compound 0.6325 µM) | relative viability (Vandetanib + Pictilisib; first compound 2 µM)
1 | NCI-H358 | 0.25 | 0.337 | 0.115 | 0.751 | 0.478 | 0.203 | 0.146 | 0.162 | 0.119 | 0.133 | 0.109 | 0.285 | 0.328 | 0.331 | 0.316 | 0.241
2 | NCI-H2023 | 0.792 | 0.828 | 0.215 | 0.589 | 0.537 | 0.308 | 0.359 | 0.369 |  | 0.314 | 0.319 | 0.218 | 0.201 | 0.261 | 0.202 | 0.279
3 | SW 1573 | 0.185 | 0.0996 | 0.0857 | 0.574 | 0.827 | 0.592 | 0.413 | 0.421 |  | 0.29 | 0.403 | 0.545 | 0.534 | 0.552 | 0.436 | 0.407
4 | NCI-H3122 | 0.0817 | 0.0775 | 0.068 | 0.28 | 0.197 | 0.189 | 0.198 | 0.183 | 0.126 | 0.178 | 0.228 | 0.668 | 0.603 | 0.58 | 0.61 | 0.601
5 | NCI-H661 | 1 | 0.883 |  | 0.808 |  | 0.596 | 0.4 | 0.411 | 0.433 | 0.458 | 0.392 | 0.381 |  | 0.373 | 0.382 | 0.347
6 | NCI-H441 | 0.315 | 0.313 | 0.36 | 0.835 | 0.965 | 0.503 | 0.221 | 0.253 | 0.21 | 0.197 | 0.171 | 0.333 | 0.49 | 0.425 | 0.527 | 0.452
7 | PC-3 [JPC-3] | 0.614 | 0.639 | 0.601 | 0.963 | 1.02 | 0.893 | 0.509 | 0.527 | 0.592 | 0.553 | 0.464 | 0.725 | 0.709 | 0.622 | 0.423 | 0.359
8 | NCI-H1993 |  | 0.785 | 0.499 |  | 0.7 | 0.696 | 0.661 | 0.628 | 0.602 | 0.581 | 0.392 | 0.832 | 0.727 | 0.64 | 0.85 | 0.723
9 | NCI-H1355 | 0.594 | 0.687 | 0.471 | 0.721 | 0.928 | 0.473 | 0.437 | 0.399 | 0.408 | 0.387 | 0.373 | 0.438 | 0.367 | 0.425 | 0.496 | 0.482
10 | NCI-H23 | 0.225 | 0.21 | 0.204 | 0.856 | 0.62 | 0.484 | 0.416 | 0.427 | 0.489 | 0.54 | 0.495 | 0.423 | 0.427 | 0.509 | 0.424 | 0.506
11 | CAL-12T | 0.185 | 0.655 | 0.0938 | 1.24 | 1.38 | 0.535 | 0.562 | 0.474 | 0.482 | 0.22 | 0.172 | 0.436 | 0.412 | 0.398 | 0.398 | 0.311
12 | ABC-1 | 0.405 | 0.264 | 0.381 | 1.07 |  | 0.537 | 0.91 | 0.541 | 0.693 | 0.708 | 0.643 | 0.794 | 0.673 | 0.866 | 0.664 | 0.765
13 | HCC-44 |  | 0.912 | 0.272 | 0.835 | 0.784 | 0.313 | 0.91 | 0.914 | 0.967 | 0.979 | 0.961 | 0.58 | 0.543 | 0.556 | 0.613 | 0.634
14 | NCI-H1755 | 0.304 | 0.272 | 0.445 | 0.692 | 1 | 0.771 | 0.46 | 0.471 | 0.427 | 0.446 | 0.439 | 0.427 | 0.381 | 0.254 | 0.426 | 0.369
15 | SK-LU-1 | 0.188 | 0.217 | 0.167 | 1.1 | 0.863 | 0.4 | 0.387 | 0.314 | 0.363 | 0.376 | 0.354 | 0.657 | 0.43 | 0.509 | 0.663 | 0.532
16 | NCI-H2126 | 0.94 | 0.845 | 0.398 | 0.756 | 0.811 | 0.65 | 0.338 | 0.348 | 0.328 | 0.356 | 0.35 | 0.461 | 0.46 | 0.468 | 0.418 | 0.481
17 | NCI-H650 | 0.776 | 0.682 | 0.489 | 1.06 | 0.961 | 0.571 | 0.358 | 0.317 | 0.366 | 0.323 | 0.291 | 0.809 | 0.849 | 0.884 | 0.908 | 0.811
